The record followed here is patent US6906094B2, “1,2,4-tribsubstituted benzenes as inhibitors of 15-lipoxygenase” (Warner-Lambert Company, priority 2000, dated 2005).

Molecules are shown by their SMILES.

One data set deals with T1, human 15-LO (Homo sapiens, UniProt P16050).
T1 construct: made in house; host or cells: Sf9 insect cells (baculovirus, Bac-to-Bac)
T1 sequence (P16050 1-662): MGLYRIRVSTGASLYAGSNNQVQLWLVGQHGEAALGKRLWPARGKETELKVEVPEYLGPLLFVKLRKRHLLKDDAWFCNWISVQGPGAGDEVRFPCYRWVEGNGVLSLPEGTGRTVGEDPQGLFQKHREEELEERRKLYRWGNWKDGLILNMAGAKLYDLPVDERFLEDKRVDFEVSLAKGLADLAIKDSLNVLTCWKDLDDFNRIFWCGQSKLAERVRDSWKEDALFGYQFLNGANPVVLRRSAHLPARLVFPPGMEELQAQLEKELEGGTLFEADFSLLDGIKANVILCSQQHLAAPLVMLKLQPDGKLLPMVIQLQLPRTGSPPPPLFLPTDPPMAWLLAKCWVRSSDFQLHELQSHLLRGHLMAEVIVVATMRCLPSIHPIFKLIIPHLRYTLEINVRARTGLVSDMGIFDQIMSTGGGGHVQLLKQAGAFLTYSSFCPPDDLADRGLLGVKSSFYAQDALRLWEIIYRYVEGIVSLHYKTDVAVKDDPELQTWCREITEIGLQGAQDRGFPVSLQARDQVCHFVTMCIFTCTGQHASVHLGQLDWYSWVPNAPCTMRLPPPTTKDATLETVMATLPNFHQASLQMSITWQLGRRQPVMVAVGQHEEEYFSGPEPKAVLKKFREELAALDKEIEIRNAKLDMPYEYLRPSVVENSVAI
Put plainly: Human Lysate 15-LO Assay (HUM15LO). Particulars: recombinant human 15-LO, 174 μM linoleic acid, 15 minutes at 4° C., 13-HODE quantitated. It counts as biochemical. As to the method:
In the HUM15LO assay, a test compound of the present invention was incubated with 15-LO enzyme in the presence of the linoleic acid substrate. For example, a known amount of a test compound of the present invention, 100 μL of human 15-LO, and 174 μM linoleic acid in PBS containing 0.2% sodium cholate were incubated for 15 minutes at 4° C. The reaction was stopped with 100 μL of mobile phase and 10 μL of triethyl phosphite. […] 13-HODE was quantitated by comparing peak areas of individual samples with those from a standard curve generated using authentic 13-HODE. The test reaction is compared to a control reaction, which is identical to the test reaction except no test compound of the present invention is present Percent inhibition is calculated as the amount of 13-HODE produced by the test reaction divided by the amount of 13-HODE produced by the control reaction, expressed as a percent.
Human 15-LO was generated in a recombinant 15-lipoxygenase bacculovirus expression system, using Gibco/BRL/Life Technologies' Bac-to-Bac expression reagents; T4 DNA ligase, Kanamycin, Gentamicin, tetracycline, penicillin, streptomycin, Bluo-gal, IPTG, DH10Bac competent cells, SOC, LB medium, Sf-900 II SFM media, Sf9 insect cells, Cell Fectin, and EcoRI, BamHI and KpnI restriction enzymes.

Data set [1] has as its target T2, rabbit reticulocyte 15-LO (Oryctolagus cuniculus, UniProt P12530).
T2 construct: 15-LO is obtained from phenylhydrazine-treated rabbits and purified according to the method of Rapoport; from tissue; host or cells: reticulocytes of phenylhydrazine-treated rabbits
T2 sequence (P12530 1-663): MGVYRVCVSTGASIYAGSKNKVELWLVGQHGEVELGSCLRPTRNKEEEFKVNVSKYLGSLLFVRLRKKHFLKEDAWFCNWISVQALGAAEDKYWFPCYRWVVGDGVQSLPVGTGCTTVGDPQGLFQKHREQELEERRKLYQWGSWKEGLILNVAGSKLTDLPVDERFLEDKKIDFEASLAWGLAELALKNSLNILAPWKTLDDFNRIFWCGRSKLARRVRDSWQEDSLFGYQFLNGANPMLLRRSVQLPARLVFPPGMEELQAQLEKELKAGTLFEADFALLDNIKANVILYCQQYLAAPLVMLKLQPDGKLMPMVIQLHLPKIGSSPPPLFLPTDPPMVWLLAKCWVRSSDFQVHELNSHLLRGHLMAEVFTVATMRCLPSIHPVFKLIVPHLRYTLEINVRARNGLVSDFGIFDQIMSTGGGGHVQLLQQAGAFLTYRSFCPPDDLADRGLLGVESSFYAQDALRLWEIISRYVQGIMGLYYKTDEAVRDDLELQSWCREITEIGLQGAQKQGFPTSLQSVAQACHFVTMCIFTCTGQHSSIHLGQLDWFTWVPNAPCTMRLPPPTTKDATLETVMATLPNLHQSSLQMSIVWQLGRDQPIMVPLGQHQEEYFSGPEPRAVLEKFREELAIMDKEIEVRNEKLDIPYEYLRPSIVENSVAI
In words: Rabbit Reticulocyte 15-LO Assay (H15LO). It counts as biochemical. To be noted: 2 U rabbit reticulocyte 15-LO, 174 μM linoleic acid, 15 minutes at 4° C., 13-HODE quantitated. As to the method:
In the H15LO assay, a test compound was incubated with 15-LO enzyme in the presence of the linoleic acid substrate. For example, 2 units (U) of rabbit reticulocyte 15-LO and 174 μM linoleic acid were incubated with a known amount of a test compound of the present invention for 15 minutes at 4° C. The total reaction volume was 100 μL in phosphate buffer saline (PBS) containing 0.2% sodium cholate. The reaction was stopped with 100 μL of mobile phase and […] of triethyl phosphite. […] 13-HODE was quantitated by comparing peak areas of individual samples with those from a standard curve generated using authentic 13-HODE.
15-LO is obtained from phenylhydrazine-treated rabbits and purified according to the method of Rapoport (Rapoport et al., European Journal of Biochemistry, 1979;96:545-561).

In general, melting point refers to the temperature, or range, at which the solid turns liquid. `COc1ccc(C(=O)Nc2ccc(F)c(F)c2)cc1NS(=O)(=O)NC(=O)OCC(C)C` [Example 23, Carbamic Acid, [[(5-[[(3,4-difluorophenyl)amino]carbonyl]-2-methoxyphenyl]amino]sulfonyl]-, 2-methylpropyl ester] displayed a melting point of 188 to 190 °C.
As usually defined, the IC50 is the concentration at which inhibition is half-maximal. With `COc1ccc(-c2cc3cc(F)c(F)cc3[nH]2)cc1NS(=O)(=O)N(C)C(=O)OCCCOCc1ccccc1` [Example 13, Carbamic Acid, [[[5-(5,6-difluoro-IH-indol-2-yl)-2-methoxyphenyl]amino]-sulfonyl]methyl-, 3(phenylmethoxy)propyl ester], the IC50 at human 15-LO was 30 nM; in data set [1], 12 nM.
The corresponding values for `COc1ccc(-c2cc3cc(F)c(F)cc3[nH]2)cc1NS(=O)(=O)NC(=O)Nc1ccc(Cl)cc1` [Example 27, Urea, N-(4-chlor phenyl)-N′-[[[5-(5,6-difluoro-IH-indol-2-yl)-2-methoxyphenyl]amino]sulfonyl]] are 44 nM and 23 nM.
For the compound `COc1ccc(C(=O)Nc2ccc(F)c(F)c2)cc1NS(=O)(=O)NC(=O)OCCCc1ccncc1` (hydrate or solvate) [Example 39, Carbamic Acid, [[[5-[[(3,4-difluorophenyl)amino]carbonyl]-2-methoxyphenyl]amino]sulfonyl]-, 3-(4-pyridinyl)propyl ester], the melting point was in the range of 160 to 164 °C.
`CCCCOC(=O)NS(=O)(=O)Nc1cc(-c2cc3cc(F)c(F)cc3[nH]2)ccc1OC` [Example 21, Carbamic Acid, [[[5-(5,6-difluoro-IH-indol-2-yl)-2-methoxyphenyl]amino]-sulfonyl]-, Butyl Ester]: the IC50 was found to be 14 nM at human 15-LO and 9 nM in data set [1].
The corresponding values for `COc1ccc(C(=O)Nc2ccc(F)c(F)c2)cc1NS(=O)(=O)NC(=O)Nc1cc(Cl)cc(Cl)c1` [Example 17, Benzamide, 3-[[[[[(3,5-dichlorophenyl)amino]-carbonyl]amino]sulfonyl]-amino]-N-(3,4-difluorophenyl)-4-methoxy] are 37 nM and 10 nM.
The corresponding values for `CCOC(=O)NS(=O)(=O)Nc1cc(-c2cc3cc(F)c(F)cc3[nH]2)ccc1OC` [Example 25, Carbamic Acid, [[[5-(5,6-difluoro-1H-indol-2-yl)-2-methoxyphenyl]amino]-sulfonyl]-, ethyl ester] are 34 nM and 15 nM.
Consider `CNS(=O)(=O)Nc1cc(-c2cc3cc(F)c(F)cc3[nH]2)ccc1OC` [Example 37, Sulfamide, N-[5-(5,6-diflouo-IH-indo-2-yl)-2-methoxyphenyl]-N′-methyl], for which the IC50 stood at 7 nM at human 15-LO and 5 nM in data set [1].
The corresponding values for `COc1ccc(NC(=O)NS(=O)(=O)Nc2cc(C(=O)Nc3ccc(F)c(F)c3)ccc2OC)cc1` [Example 66, Benzamide, N-(3,4-difluorophenyl)-4-methoxy-3-[[[[[(4-methoxyphenyl)-amino]carbonyl]amino]sulfonyl]amino]] are 225 nM and 51 nM.
As for `COc1ccc(-c2cc3cc(F)c(F)cc3[nH]2)cc1NS(=O)(=O)NC(=O)OCCc1ccccc1` [Example 40, Carbamic Acid, [[[5-(5,6-difluoro-IH-indol-2-yl)-2-methoxyphenyl]amino]-sulfonyl]-2-phenylethyl ester], the IC50 worked out at 15 nM on human 15-LO and 7 nM in data set [1].
The corresponding values for `COC(=O)NS(=O)(=O)Nc1cc(-c2cc3cc(F)c(F)cc3[nH]2)ccc1OC` [Example 29, Carbamic Acid, [[[5-(5,6-difluoro-IH-indol-2-yl)-2-methoxyphenyl]amino]-sulfonyl]-methyl ester] are 85 nM and 47 nM.
The corresponding values for `CCCCCCCCCCCCOC(=O)NS(=O)(=O)Nc1cc(-c2cc3cc(F)c(F)cc3[nH]2)ccc1OC` [Example 1, Carbamic Acid, [[[5-(5,6-difluoro-IH-indol-2-yl)-2-methoxyphenyl]amino]-sulfonyl]-, Dodecyl Ester] are 6 nM and 17 nM.
The corresponding values for `COc1ccc(C(=O)Nc2ccc(F)c(F)c2)cc1NS(=O)(=O)NC(=O)Nc1ccc(C(C)(C)C)cc1` [Example 59, Benzamide, N-(3,4-difluorophenyl)-3-[[[[[[4-(1,1-dimethylethyl)phenyl]-amino]carbonyl]amino]sulfonyl]amino]-4-methoxy] are 24 nM and 13 nM.
Consider `COC(=O)COC(=O)NS(=O)(=O)Nc1cc(-c2cc3cc(F)c(F)cc3[nH]2)ccc1OC` [Example 43, Acetic Acid, [[[[[[5-(5,6-difluoro-1H-indol-2-yl)-2-methoxyphenyl]amino]-sulfonyl]amino]carbonyl]oxy]-, Methyl ester], for which the half-inhibitory concentration (IC50) at human 15-LO amounted to 30 nM; in data set [1], 17 nM.
The corresponding values for `COc1ccc(-c2cc3cc(F)c(F)cc3[nH]2)cc1NS(=O)(=O)NC(=O)Nc1cc(Cl)cc(Cl)c1` [Example 24] are 33 nM and 11 nM.
The corresponding values for `COc1ccc(-c2cc3cc(F)c(F)cc3[nH]2)cc1NS(=O)(=O)NC(=O)OCC(=O)OCc1ccccc1` [Example 16, Acetic Acid, [[[[[[5-(5,6-difluoro-IH-indol-2-yl)-2-methoxyphenyl]amino]-sulfonyl]amino]carbonyl]oxy]-, phenylmethyl ester] are 10 nM and 2 nM.
The corresponding values for `COc1ccc(C(=O)Nc2ccc(F)c(F)c2)cc1NS(=O)(=O)NC(=O)Nc1ccc(C(=O)O)cc1` [Example 65, Benzoic Acid, 4-[[[[[[5-[[(3,4-difluorophenyl)amino]carbonyl]-2-methoxyphenyl]amino]sulfonyl]amino]carbonyl]amino]] are 273 nM and 30 nM.
As to `COc1ccc(-c2cc3cc(F)c(F)cc3[nH]2)cc1NS(=O)(=O)NC(=O)OCC(C)C` [Example 22, Carbamic Acid, [[[5-(5,6-difluoro-IH-indol-2-yl)-2-methoxyphenyl]amino]-sulfonyl]-, 2-methylpropyl ester], the IC50 (at human 15-LO; in data set [1]) was 25 nM in each case.
In the case of `CNS(=O)(=O)Nc1cc(C(=O)Nc2ccc(F)c(F)c2)ccc1OC` [Example 38, Benzamide, N-(3,4-difluorophenyl)-4-methoxy-3-[[(methylamino)-sulfonyl]amino]], the IC50 (at human 15-LO; in data set [1]) was 13 nM in each case.
